One data set relates to wheat germ NMT. Description: in vitro myristoylation assay with partially purified wheat germ NMT. The format is biochemical. The note with it: fatty acid or analog at 5 μM, peptide varied; read-out: Km of peptide substrate Gly-Asn-Ala-Ala-Ser-[125I]Tyr-Arg-Arg. The protocol:
Myristoyl CoA and fatty acid analog CoA were generated by incubation of the fatty acid or analog with CoA, ATP and CoA ligase. This reaction mixture was added to wheat germ NMT and Gly-Asn-Ala-Ala-Ser- [^125 I]Tyr-Arg-Arg in the presence of 0.03% Triton® X-100. Reaction products were characterized by reverse phase HPLC and gamma counting.
The invention is illustrated in greater detail in the following Examples 1 to 15 by the synthesis and testing of representative compounds of the invention as myristoylating enzyme substrates. Accordingly, the invention is first illustrated in Examples 1 to 5 by the chemical synthesis of a sulfur-containing analog of myristic acid, namely 11-(ethylthio)undecanoicacid, CH3 CH2 --S--(CH2)10 COOH, which is then tested in vitro as a wheat germ NMT substrate. Wheat germ NMT is a protein similar to yeast NMT. The purity and chemical identity of the synthesized compound were examined using ^1 H and ^13 C NMR as well as mass spectroscopy. The assay that was used to characterize the substrate specificity of wheat germ NMT measures the rate of attachment of a radiolabelled fatty acid to an unlabelled peptide. The fatty acid analog synthesized was nonradioactive.
Characterization of Partially Purified Wheat Germ NMT--Assays for NMT activity were performed using a procedure detailed previously by Towler and Glaser, Proc. Natl. Acad. Sci. USA 83, 2812-2816 (1986). Briefly, the in vitro assay measures the transfer of radiolabelled fatty acid from acyl CoA to a synthetic peptide substrate. The acylpeptide product is identified by reverse phase HPLC. Time and enzyme dependence were evaluated by varying the reaction time or the enzyme concentration. […] Fatty acid specificity was examined essentially as described by Towler et al., J. Biol. Chem. 262, 1030-1036 (1987), except that the peptide Gly-Ser-Ser-Lys-Ser-Lys-Pro-Lys rather than Gly-Asn-Ala-Ala-Ala-Ala-Arg-Arg was used to compare palmitate and myristate utilization by wheat germ NMT. This was necessary because of the presence of a large, peptide-independent peak which co-eluted with a palmitoyl-Gly-Asn-Ala-Ala-Ala-Ala-Arg-Arg standard. [^3 H]Palmitate and [^3 H]myristate were used in this comparison. [^14 C]fatty acids were used to compare C-10, C-12 and C-14 chain lengths. Fatty acyl CoA concentrations in these assays were determined by a modification of the method of Hosaka et al., Methods Enzymol. 71, 325-333 (1981).
Characterization of the Fatty Acid Analog--Gly-Asn-Ala-Ala-Ser-[^125 I]Tyr-Arg-Arg as prepared in Example 2, above, was tested in an in vitro myristoylation system which was modified from that used with radiolabelled fatty acids. […] 20-fold more wheat germ NMT (480-fold purified as in Example 3, above) was used for these assays than for assays which employed [^3 H] myristate. […] Double reciprocal plots were generated for the iodinated peptide with both myristic acid and the sulfur analog by altering the peptide concentration in the presence of a constant amount of fatty acid or analog. […] The assays contained 0.03% Triton X-100 to maintain the solubility of the fatty acids.

Data set [1] in a line: C18 reverse phase HPLC elution of fatty acyl peptides (hydrophobicity). It counts as physicochemical. The protocol: The fatty acid analog acyl-peptide eluted 7 minutes earlier than the corresponding myristoyl peptide. The free peptide elutes in the void volume (3-5minutes).
This difference was evident when the HPLC elution characteristics of fatty acyl peptides were examined. The elution time of a particular acyl-peptide depends strongly on the peptide sequence as well as on the acyl chain attached to that peptide. For example, the elution times of fatty acyl derivatives of GNAAAARR are (in minutes) decanoic acid, 9; dodecanoic acid, 18; myristic acid, 24; and palmitic acid, 30. Elution times for fatty acyl derivatives of GNAAS[^125 I]YRR are 23 and 28 minutes for C12 and C14 fatty acids, respectively (FIG. 2). […] Such a change could alter the biological activity of myristoyl proteins.
For these Examples, each analog synthesized is characterized by ^1 H and ^13 C NMR as well as mass spectroscopy. The analogs are then characterized kinetically as NMT substrates. Briefly, fatty acid analogs are converted to their CoA esters with Pseudomonas CoA ligase and incubated with the iodinated peptide GNAAS[^125 I]YRR and a source of NMT. […] The radiolabelled peptide is then used at concentrations which will lead to 50% enzyme saturation (i.e., at its Km) for the determination of fatty acid analog kinetic characteristics. Representative analogs with sulfur or oxygen in the backbone of the fatty acid chain serve as good substrates for NMT in vitro and will compete for incorporation of ^3 H labelled myri-state into yeast proteins in vivo. In addition, these analogs differ markedly in hydrophobicity from myri-state as measured both by C18 reverse phase HPLC elution profiles and by 2-octanol/water partition coefficients. The analog CH3 O(CH2)11 COOH, for example, partitions into water 20 fold better than myristate. It is believed that these analogs will be incorporated into mammalian acylproteins in vivo and that their incorporation into these proteins will drastically alter protein processing or targeting. It is further believed that the incorporation of fatty acid analogs of both myristate and palmitate into ester linked and phosphatidyl inositol glycan linked acylproteins will also dramatically alter their properties. Since many viral proteins and oncogenes are acylated, these compounds represent a new class of potential antiviral and antineoplastic agents.

The subject of data set [2] is yeast myristoylprotein of Mr 20 kDa. Description: competition for [3H]myristate incorporation into yeast acylprotein in vivo. The note with it: Saccharomyces cerevisiae, 0.75 h, read-out: reduction in incorporation of [3H]myristate into yeast myristoylprotein of Mr 20 kDa. It counts as cell-based. The protocol:
(§1) Saccharomyces cerevisiae strain BJ405 [MATα, trpl, prbl, prcl, pep4-3; Hemmings et al., Proc. Natl. Acad. Sci. USA 78, 435-439 (1981)] (previously referred to as JR153) was grown to mid-log phase (OD660 nm =1.0-1.2) in YPD medium (1% yeast extract/2% Bactopeptone/2% Dextrose) at 30° C. in a rotary shaker water bath. Cells were pretreated with Cerulenin at 2 μg/ml for 15 minutes and then incubated for 20-45 minutes with unlabeled myristate, palmitate or fatty acid analog at 100 μM in the presence of either 5 μM [9,10-^3 H(N)]-myristate (22.4 Ci/mmol) or L-[^35 S]methionine (1106 Ci/mmol) at 30 μCi/ml of culture.
(§2) Cells were cooled on ice 5 minutes, pelleted at 10,000×g, then broken and extracted by the method of Towler et al., Proc. Natl. Acad. Sci. USA 83, 2812-2816 (1986). Total protein synthesis was assayed by trichloroacetic acid (TCA) precipitation. Proteins were separated by SDS-12% polyacrylamide gel electrophoresis, and [^3 H]fatty acid incorporation into cellular acyl-proteins was assayed by autoradiography followed by laser densitometry.

Data set [3] in a line: growth, toxicity and total protein synthesis in yeast cells. The format is cell-based. The following applies: s. cerevisiae bj405, vs control cells not exposed to exogenous fatty acid, read-out: reduction in total protein synthesis ([35S]methionine into TCA precipitable protein). The protocol:
as §1, §2

Usually Km stands for the concentration of substrate that gives half-maximal velocity. In the case of `CCCCCCCCCCCCCC(=O)O` [myristic acid, reference compound], the Michaelis-Menten constant (Km) in the data set with wheat germ NMT came out at 3 µM. Moreover, the “Elution Time” value in data set [1] (C18 reverse phase HPLC, acyl derivative of GNAAS[125I]YRR, Table 2) was 26 min. In addition, in data set [1] (reverse phase HPLC), the “elution time of fatty acyl derivative of GNAAAARR” value amounted to 24 min. In addition, the “elution time of fatty acyl derivative of GNAAS[125I]YRR” value in data set [1] (reverse phase HPLC, FIG. 2, text) is 28 min. The inhibition at 100 µM in data set [2] fell in the range of 75 to 80%; in data set [3], 10 to 15%.

The record behind these values is US5959145A, “Fatty acid analog enzyme substrates” (priority 1993, dated 1999).
